Converted amounts (≈) assume the structure as drawn.
Tests used:
[1] = system: CD13; assay: FACS analysis of stem/progenitor marker CD13 after treatment; assay type: cell-based, human; conditions: HuH-7 and Hep3B cells
From the text: (§3) For flow cytometry, FACSCanto™ II (BD Biosciences, San Jose, Calif.) was used. Cancer cells were washed with phosphate-buffered saline, and then enzymatically dissociated with 0.05% trypsin-EDTA (Invitrogen). The trypsinized cells were suspended in FACS buffer, and analyzed on FACSCanto™ II using FACSDiva software (BD Biosciences). For the analysis of hepatic stem/progenitor markers, primary antibodies against Ep-CAM (#324206; Biolegend, San Diego, Calif.), CD13 (#555394; BD Pharmingen), CD44 (#555479; BD Pharmingen), CD90 (#328110; BioLegend), CD133 (#130-080-801; Miltenyi Biotec, Gladbach, Germany), Mouse IgG1 κtype (#555749; BioLegend), and Mouse IgG2b κtype (#400314; BioLegend) were used. All antibodies were conjugated directly with phycoerythrin (PE). The immunostaining and analysis were performed according to the instructions from the manufacturer.

[2] = system: HuH-7 subcutaneous xenografts; assay: Subcutaneous xenograft model; assay type: in vivo, NOD.CB17-PRkdcScid/J mice; conditions: three weeks after initiation; VB4-845 30 μg/kg i.v., 5-FU 30 mg/kg i.p., three times a week for 2 weeks
Experimental: Twenty five-week-old female NOD.CB17-PRkdcScid/J mice purchased from Charles River Laboratory Inc. (Kanagawa, Japan) were injected with 1×10^6 HuH-7 cells mixed with the same amount of Matrigel (BD Biosciences) subcutaneously into the both flanks of mice under anesthesia. […] Tumor size was measured using calipers three times a week and tumor volumes calculated using the following equation: volume=(length)×(width)2×0.5. The mice were sacrificed three weeks after the initiation of treatment.

[3] = system: HuH-7; assay: MTS cell growth assay, HuH-7; assay type: cell-based; conditions: Homo sapiens, 48 h incubation
Experimental: (§4) Human HCC cell lines Hep3B, PLC/PRF/5, and SK-Hep1 were obtained from the American Type Culture Collection (Manassas, Va., USA). Other human HCC cell lines HuH-7, HuH-1, HepG2, HLE, and HLF were obtained from the Human Science Research Resources Bank (Osaka, Japan). HuH-7, HepG2, Hep3B, and SK-Hep1 cells were cultured in log growth phase in 1640 RPMI (Invitrogen, Carlsbad, Calif.) and HuH-1, HLE, HLF, and PLC/PRF/5, cells were cultured in Dulbecco's modified Eagle medium (Invitrogen) with 5% fetal bovine serum (Sigma, St. Louis, Mo.) for HLF cells or 10% FBS for the remaining cell lines. All media were supplemented with 1% PenStrep (Sigma). […] All cell lines were cultivated in a humidified incubator at 37° C. in 5% carbon dioxide and harvested with 0.05% trypsin-0.03% EDTA (Invitrogen).
(§5) HCC cell lines were seeded in 96-well plates at 3×10^3 cells per well in a total volume of 50 μl of culture media. […] Cell viability was monitored using CellTiter 96 AQueous One Solution Cell Proliferation Assay Kit (Promega) and half-maximal inhibitory concentration (IC50) values were calculated. The mean values and standard deviations of IC50 were calculated in triplicate for each cell line. […] Each analysis was performed in triplicate, and the data expressed as means±standard deviations.

[4] = system: SK-Hep1 cells; assay: MTS cell growth assay, SK-Hep1; assay type: cell-based; conditions: Homo sapiens, 48 h incubation
Experimental: (§1) Human HCC cell lines Hep3B, PLC/PRF/5, and SK-Hep1 were obtained from the American Type Culture Collection (Manassas, Va., USA). Other human HCC cell lines HuH-7, HuH-1, HepG2, HLE, and HLF were obtained from the Human Science Research Resources Bank (Osaka, Japan). HuH-7, HepG2, Hep3B, and SK-Hep1 cells were cultured in log growth phase in 1640 RPMI (Invitrogen, Carlsbad, Calif.) and HuH-1, HLE, HLF, and PLC/PRF/5, cells were cultured in Dulbecco's modified Eagle medium (Invitrogen) with 5% fetal bovine serum (Sigma, St. Louis, Mo.) for HLF cells or 10% FBS for the remaining cell lines. All media were supplemented with 1% PenStrep (Sigma). […]
(§2) HCC cell lines were seeded in 96-well plates at 3×10^3 cells per well in a total volume of 50 μl of culture media. […] Cell viability was monitored using CellTiter 96 AQueous One Solution Cell Proliferation Assay Kit (Promega) and half-maximal inhibitory concentration (IC50) values were calculated. The mean values and standard deviations of IC50 were calculated in triplicate for each cell line. […] The remaining viable cells were counted using a Cytorecon (GE Healthcare) after staining with trypan blue to exclude the dead cells. Each analysis was performed in triplicate, and the data expressed as means±standard deviations.

[5] = system: HuH-1; assay: MTS cell growth assay, HuH-1; assay type: cell-based; conditions: Homo sapiens, 48 h incubation
Experimental: as §4, §5

[6] = system: HepG2; assay: MTS cell growth assay, HepG2; assay type: cell-based; conditions: Homo sapiens, 48 h incubation
Experimental: as §4, §5

[7] = system: PLC/PRF/5; assay: MTS cell growth assay, PLC/PRF/5; assay type: cell-based; conditions: Homo sapiens, 48 h incubation
Experimental: as §1, §2

[8] = system: CD133; assay: FACS analysis of stem/progenitor marker CD133 after treatment; assay type: cell-based, human; conditions: HuH-7, HepG2, and Hep3B cells, compared with the control
From the text: as §3

[9] = system: HLF; assay: MTS cell growth assay, HLF; assay type: cell-based; conditions: Homo sapiens, 48 h incubation
Experimental: as §1, §2

[10] = system: Hep3B; assay: MTS cell growth assay, Hep3B; assay type: cell-based; conditions: Homo sapiens, 48 h incubation
Experimental: as §4, §5

[11] = system: Ep-CAM^low cell lines; assay: Cell proliferation assay (viable cell count, trypan blue), Ep-CAM^low cell lines; assay type: cell-based, human; conditions: VB4-845 10 pM and 5-FU 1-5 μg/ml, 48 h; p>0.05
Experimental: (A) Expression of Ep-CAM was analyzed by flow cytometry in 8 HCC cell lines. […] Cell growth was measured in MTS assays. […] Columns, alive cells (%); vertical bars, standard deviation.
as §2, with “line. To investigate cell viability, HCC cell lines were seeded in 6-well plates at 1×10^5 cells per well in a total volume of 2 ml of culture media.” for “line.”

[12] = system: HLE; assay: MTS cell growth assay, HLE; assay type: cell-based; conditions: Homo sapiens, 48 h incubation
Experimental: as §1, §2

[13] = system: Ep-CAM^high cell lines (HuH-7, HepG2, Hep3B and HuH-1); assay: Sphere formation assay; assay type: cell-based, human; conditions: 48 h treatment (VB4-845 1-10 pM, 5-FU 1-5 μg/ml), 7 days of culture
Experimental: Briefly, 1×10^6 cells of HuH-7, HepG2, Hep3B and HuH-1 were seeded in four 10 cm dishes. […] After 48h, the medium was changed to drug-free medium and incubated for 24 h. After cell viability was confirmed by trypan blue exclusion, the remaining viable cells were collected and plated separately at 1×10^2 cells in low attachment plates (96-well Ultra Low Cluster Plate; Costar, Corning, N.Y.), and incubated in serum-free Dulbecco's modified Eagle medium/F12 medium (Invitrogen). Sphere formation was observed using AxioObserver (Carl Zeiss, Oberkochen, Germany), and the images were acquired digitally using AxioVision software (Carl Zeiss).

In the case of `O=c1[nH]cc(F)c(=O)[nH]1` [5-FU, 5-fluorouracil], the “positive rate of CD13” value [1] is reported as “significantly increased”, the volume of tumors [2] is reported as 555±147 mm^3 and the IC50 [3] is reported as 0.8 ± 0.1 µg/mL (≈ 6.15 µM). The IC50 [4] was 4.3 ± 0.5 µg/mL (≈ 33.1 µM), the IC50 [5] was 11.3 ± 6.3 µg/mL (≈ 86.9 µM) and the IC50 [6] was 39.5 ± 9.6 µg/mL (≈ 304 µM). For the same compound, the IC50 [7] was 55.6 ± 11.2 µg/mL (≈ 427 µM), the “positive rate of CD133” value [8] was “significantly increased” and the IC50 [9] was 33.5 ± 17.2 µg/mL (≈ 258 µM). The IC50 [10] was 5.9 ± 1.8 µg/mL (≈ 45.4 µM), the “cell proliferation (alive cells)” value [11] was “suppressed cell proliferation to the same extent as the combination of VB4-845 and 5-FU” and the IC50 [12] was 16.5 ± 6.6 µg/mL (≈ 127 µM). The “sphere formation by surviving cells” value [13] was “formed spheres”.

Reference: patent US20160060352A1, “COMPOSITIONS AND METHODS FOR DETECTION AND TREATMENT OF HEPA[…]” (VIVENTIA BIO INC., priority 2013, published 2016)
